In one test the target is T1, NOX2 (Homo sapiens, UniProt P04839).
T1 construct: endogenous in cells; host or cells: freshly isolated human blood-derived granulocytes
T1 sequence (P04839 2-570 limits assumed): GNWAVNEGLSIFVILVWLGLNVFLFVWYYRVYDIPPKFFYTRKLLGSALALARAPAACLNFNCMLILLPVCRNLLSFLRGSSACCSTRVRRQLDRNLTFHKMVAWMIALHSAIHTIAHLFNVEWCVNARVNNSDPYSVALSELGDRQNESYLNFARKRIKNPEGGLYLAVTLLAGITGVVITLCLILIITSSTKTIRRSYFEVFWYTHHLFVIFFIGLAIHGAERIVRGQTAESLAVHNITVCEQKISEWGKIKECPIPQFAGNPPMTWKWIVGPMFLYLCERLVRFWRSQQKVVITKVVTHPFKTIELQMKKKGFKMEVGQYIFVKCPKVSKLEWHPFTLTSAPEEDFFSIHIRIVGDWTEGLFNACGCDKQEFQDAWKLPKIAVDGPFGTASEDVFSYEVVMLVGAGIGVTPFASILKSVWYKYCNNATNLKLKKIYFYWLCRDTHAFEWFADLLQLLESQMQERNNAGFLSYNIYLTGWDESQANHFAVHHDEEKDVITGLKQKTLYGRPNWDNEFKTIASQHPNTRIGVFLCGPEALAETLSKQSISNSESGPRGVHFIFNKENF
T1 sequence (P13498 2-195 partner limits assumed): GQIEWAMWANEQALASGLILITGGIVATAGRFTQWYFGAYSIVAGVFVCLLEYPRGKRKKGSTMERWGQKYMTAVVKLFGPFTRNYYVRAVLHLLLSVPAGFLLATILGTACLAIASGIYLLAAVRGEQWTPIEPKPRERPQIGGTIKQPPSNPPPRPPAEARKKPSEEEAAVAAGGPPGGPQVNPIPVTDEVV
As to the kind of experiment: NOX2 inhibition assay (L-012), human blood-derived granulocytes. Format: cell-based. As to conditions: fMLP/PMA stimulated. The method, then:
Evaluation of the NOX4 inhibitors on NOX2 activity is assessed in human blood-derived granulocytes.
Afterwards, freshly isolated granulocytes are added to the wells containing the compounds in assay buffer and incubated for 1 h at 37° C. Next, a solution of Nformylmethionine-leucyl-phenylalanine (fMLP; 730 nM), phorbol myristate acetate (PMA, 100 nM) (stimuli of ROS production) and L-012 (200 μM, ROS indicator) is added to the wells and the cells are incubated for additional 30 mins at 37° C. Afterwards luminescence is measured in a SpectraMax M5 microplate reader.

Another test addresses T2, human NOX1 (hNOX1) (Homo sapiens, UniProt Q9Y5S8).
T2 construct: pLV-CMV-hNOX1-puro (NM_007052.5); host or cells: HEK293 (CLS GmbH), lentiviral transduction
T2 sequence (Q9Y5S8 1-564): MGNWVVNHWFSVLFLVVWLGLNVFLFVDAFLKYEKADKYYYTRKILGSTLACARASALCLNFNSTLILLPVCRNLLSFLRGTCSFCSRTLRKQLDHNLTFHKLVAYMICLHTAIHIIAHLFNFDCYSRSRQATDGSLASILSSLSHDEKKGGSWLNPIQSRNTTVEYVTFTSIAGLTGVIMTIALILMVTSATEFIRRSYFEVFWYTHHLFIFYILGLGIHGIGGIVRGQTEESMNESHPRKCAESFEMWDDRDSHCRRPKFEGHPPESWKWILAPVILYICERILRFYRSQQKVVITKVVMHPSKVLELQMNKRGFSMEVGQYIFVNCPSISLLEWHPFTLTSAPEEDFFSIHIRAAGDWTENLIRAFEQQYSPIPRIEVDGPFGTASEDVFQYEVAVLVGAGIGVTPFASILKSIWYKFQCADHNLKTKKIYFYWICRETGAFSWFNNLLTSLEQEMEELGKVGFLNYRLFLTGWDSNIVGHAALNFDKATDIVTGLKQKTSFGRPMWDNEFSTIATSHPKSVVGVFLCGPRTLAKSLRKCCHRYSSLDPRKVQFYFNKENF
T2 sequence (P13498 2-195 partner limits assumed): T1 sequence (P13498 2-195 partner limits assumed)
As to the kind of experiment: NOX1 inhibition assay (L-012), HEK293 cells stably overexpressing human NOX1. Type of test: cell-based. Conditions: HEK293-hNOX1, PMA stimulated. The source says:
Plasmids are Purchased from Vectorbuilder. • for HEK-hNOX1 all necessary subunits are cloned accordingly: • pLV-CMV-hNOX1-puro (NM_007052.5) • pLV-CMV-hNOXO1-blas (NM_172168.3) • pLV-CMV-hp22phox-hygro (NM_000101.4) • pLV-CMV-hNOXA1-neo (NM_006647.2) • for HEK-hNOX3 • pLV-CMV-hNOX3-puro (NM_015718.3)
3rd generation lentiviral particles are produced in HEK293 suspension cells by transient transfection of three helper and expression plasmids. Crucial lentivirus supernatants are harvested, clarified by filtration and concentrated by precipitation. Lentivirus titers are determined in transducing units in (TU/mL) by transduction of HT1080 cells and colony forming assay. Parental HEK293 cells, purchased from CLS GmbH, are transduced with replication-incompetent 3rd generation lentiviral particles (MOI 2) and expanded for at least 2 weeks before cryopreservation of tested lots. During cultivation, medium is changed three times per week and cells are sub-cultured at least once per week. Selection antibiotics are added according to the plasmids (1 μg/ml puromycin, 1.5 μg/ml blasticidin, 200 μg/ml G418 and 100 μg/ml hygromycin).
Evaluation of the NOX4 inhibitors on NOX1 activity is assessed in HEK293 cells stably overexpressing human NOX1 (hNOX1).
Lastly, 8-amino-5-chloro-2,3-dihydro-7-phenyl-pyrido[3,4-d]pyridazine-1,4-dione sodium salt (L-012, CAS 143556-24-5) is added at 400 μM to all wells, and cells are incubated in an incubator for an additional 3 h. Afterwards luminescence is measured with a SpectraMax Paradigm Microplate Reader.

In general, IC50 refers to the concentration at which inhibition is half-maximal.

Where only a bound is given, the exact number is not on record here.

Take `Cc1cc(F)ccc1CSc1nc2ncsc2c(=O)n1-c1ccc(O)nn1` [Example 68]: the figures for the IC50 on NOX2 and on human NOX1 (hNOX1) were more than 100 µM and 11 µM, respectively. As to `O=c1c2scnc2nc(SCc2c(F)cc(F)cc2F)n1-c1ccc(O)nn1` [Example 67], the IC50 on NOX2 was more than 30 µM; on human NOX1 (hNOX1), more than 100 µM. In the same order, the values of `O=c1c2scnc2nc(SCc2ccc(C(F)(F)F)cc2F)n1-c1ccc(O)nc1` [Example 26] are more than 100 µM and 33 µM. Take `O=c1c2scnc2nc(SCc2ccc(C(F)(F)F)cc2F)n1-c1cc(F)c(O)c(F)c1` [Example 6]: the IC50 at NOX2 and against human NOX1 (hNOX1) was more than 100 µM throughout. As for `O=c1c2scnc2nc(SCc2ccc(C(F)(F)F)cc2F)n1-c1cnc(O)c(F)c1` [Example 42], the figures for the IC50 at NOX2 and on human NOX1 (hNOX1) were more than 100 µM and 5.6 µM, respectively. With `O=c1c2scnc2nc(SCc2c(F)cc(F)cc2F)n1-c1c(F)cc(O)cc1F` [Example 13], the results for the IC50 on NOX2 and against human NOX1 (hNOX1) were 84.6 µM and 3.2 µM, respectively. In turn, `Cc1cc(Cl)ccc1CSc1nc2ncsc2c(=O)n1-c1cnc(O)nc1` [Example 54] yielded an IC50 on NOX2 of more than 100 µM.

With `O=c1c2scnc2nc(SCc2c(F)ccc(F)c2F)n1-c1cnc(O)c(F)c1` [Example 45], the concentration for half-maximal inhibition (IC50) is more than 100 µM at NOX2 and 30.9 µM at human NOX1 (hNOX1). Regarding `N#Cc1cc(-n2c(SCc3c(F)cc(F)cc3F)nc3ncsc3c2=O)cnc1O` [Example 47, 2-Hydroxy-5-(7-oxo-5-((2,4,6-trifluorobenzyl)thio)thiazolo[4,5-d]pyrimidin-6(7H)-yl)-nicotinonitrile], the figures for the IC50 at NOX2 and against human NOX1 (hNOX1) were more than 30 µM and 4.9 µM, respectively. In the case of `O=c1c2scnc2nc(SCc2ccc(Cl)cc2)n1-c1ccc(O)nn1` [Example 64], the IC50 on NOX2 and at human NOX1 (hNOX1) was more than 100 µM in each case. With `O=c1c2scnc2nc(SCc2c(F)cc(F)cc2F)n1-c1ccc(O)cn1` [Example 19], the IC50 on NOX2 came to 48.1 µM; on human NOX1 (hNOX1) it was 16.9 µM. On to `O=c1c2scnc2nc(SCc2ccc(C(F)(F)F)cc2)n1-c1cnc(O)c(F)c1` [Example 32, 6-(5-Fluoro-6-hydroxypyridin-3-yl)-5-((4-(trifluoromethyl)benzyl)thio)thiazolo[4,5-d]pyrimidin-7(6H)-one], for which the IC50 against NOX2 and on human NOX1 (hNOX1) was more than 100 µM throughout.

Take `Cc1cc(F)cc(C)c1CSc1nc2ncsc2c(=O)n1-c1ccc(O)nn1` [Example 63]: the IC50 at NOX2 was determined as 46 µM; against human NOX1 (hNOX1) it was 43.4 µM. On to `N#Cc1cc(-n2c(SCc3c(F)cc(F)cc3F)nc3ncsc3c2=O)ccc1O` [Example 18], for which the IC50 is more than 30 µM at NOX2 and 0.06 µM at human NOX1 (hNOX1). For `O=c1c2scnc2nc(SCc2ccc(F)cc2Br)n1-c1cnc(O)c(F)c1` [Example 44], the IC50 was more than 100 µM against NOX2 and 43.2 µM against human NOX1 (hNOX1). On to `O=c1c2scnc2nc(SCc2ccc(C(F)(F)F)cc2)n1-c1cc(F)c(O)c(F)c1` [Example 7], for which the IC50 against NOX2 and against human NOX1 (hNOX1) was more than 100 µM each time. As for `O=c1c2scnc2nc(SCc2c(F)cc(F)cc2F)n1-c1ccc(O)cc1` [Example 15], the IC50 was found to be 10.3 µM against NOX2 and 4.1 µM against human NOX1 (hNOX1).

`O=c1c2scnc2nc(SCc2ccc(Cl)cc2F)n1-c1cc(F)c(O)c(F)c1` [Example 2, 5-((4-Chloro-2-fluorobenzyl)thio)-6-(3,5-difluoro-4-hydroxyphenyl)thiazolo[4,5-d]-pyrimidin-7(6H)-one] had an IC50 against NOX2 of more than 100 µM. `O=c1c2scnc2nc(SCc2c(F)cc(F)cc2Cl)n1-c1cnc(O)c(F)c1` [Example 41]: the IC50 on NOX2 came to 39.3 µM; on human NOX1 (hNOX1), 9.8 µM. For `O=c1c2scnc2nc(SCc2ccc(Cl)cc2F)n1-c1ccc(O)nc1` [Example 22, 5-((4-Chloro-2-fluorobenzyl)thio)-6-(6-hydroxypyridin-3-yl)thiazolo[4,5-d]pyrimidin-7(6H)-one], the results for the IC50 at NOX2 and on human NOX1 (hNOX1) were more than 30 µM and more than 100 µM, respectively.

As for `Cc1cc(F)cc(C)c1CSc1nc2ncsc2c(=O)n1-c1cnc(O)nc1` [Example 55], the IC50 against NOX2 is more than 100 µM; against human NOX1 (hNOX1) it was 16.5 µM.

Compound `Cc1cc(F)cc(C)c1CSc1nc2ncsc2c(=O)n1-c1cc(F)c(O)c(F)c1` [Example 4] had a 50% inhibitory concentration (IC50) at NOX2 of more than 100 µM. For the compound `O=c1c2scnc2nc(SCc2c(F)cc(F)cc2F)n1-c1cc(F)c(O)cn1` [Example 20], the IC50 was more than 100 µM against NOX2 and 7 µM at human NOX1 (hNOX1). Consider `O=c1c2scnc2nc(SCc2ccc(C(F)(F)F)cc2)n1-c1ccc(O)nc1` [Example 27], for which the results for the 50% inhibitory concentration (IC50) against NOX2 and at human NOX1 (hNOX1) were more than 100 µM and 76 µM, respectively. As for `O=c1c2scnc2nc(SCc2ccc(Cl)cc2)n1-c1ccc(O)nc1` [Example 25], the IC50 at NOX2 and against human NOX1 (hNOX1) was more than 100 µM each time. Regarding `O=c1c2scnc2nc(SCc2c(F)cc(F)cc2F)n1-c1cc(F)c(O)c(F)c1` [Example 8], the values for the IC50 against NOX2 and on human NOX1 (hNOX1) were more than 30 µM and 1.1 µM, respectively. In the same order, the values of `O=c1c2scnc2nc(SCc2c(F)cc(F)cc2F)n1-c1ccc(O)c(Cl)c1` [Example 16] are more than 100 µM and 15 µM. As to `Cc1cc(F)ccc1CSc1nc2ncsc2c(=O)n1-c1ccc(O)nc1` [Example 29], the IC50 against NOX2 stood at 36.9 µM; at human NOX1 (hNOX1), 33.3 µM.

Compound `O=c1c2scnc2nc(SCc2ccc(C(F)(F)F)cc2F)n1-c1cnc(O)nc1` [Example 57] gave an IC50 on NOX2 of more than 100 µM. For the compound `O=c1c2scnc2nc(SCc2c(F)cc(F)cc2F)n1-c1ncc(O)cn1` [Example 21, 6-(5-Hydroxypyrimidin-2-yl)-5-((2,4,6-trifluorobenzyl)thio)thiazolo[4,5-d]pyrimidin-7(6H)-one], the IC50 at NOX2 and at human NOX1 (hNOX1) was more than 100 µM in each case.

Turning to `O=c1c2scnc2nc(SCc2c(F)cc(F)cc2F)n1-c1ccc(O)cc1Cl` [Example 17], half-maximal inhibition on human NOX1 (hNOX1) (IC50) required 14.4 µM.

As to `O=c1c2scnc2nc(SCc2c(F)cc(F)cc2F)n1-c1cc(F)c(O)nc1F` [Example 51, 6-(2,5-Difluoro-6-hydroxypyridin-3-yl)-5-((2,4,6-trifluorobenzyl)thio)thiazolo[4,5-d]-pyrimidin-7(6H)-one], the IC50 on NOX2 was more than 100 µM; against human NOX1 (hNOX1), 3 µM. In the same order, the values of `O=c1c2scnc2nc(SCc2ccc(Cl)cc2)n1-c1cnc(O)nc1` [Example 56] are more than 100 µM and 2.7 µM. Take `Cc1cc(F)cc(C)c1CSc1nc2ncsc2c(=O)n1-c1ccc(O)nc1` [Example 24]: the figures for the half-maximal inhibitory concentration (IC50) against NOX2 and on human NOX1 (hNOX1) were 10.3 µM and 20.6 µM, respectively.

The record behind these values is patent publication US20240327429A1, “[1,3]Thiazolo[4,5-d]-pyrimidon-7-ones as inhibitors of NOX4” (Boehringer Ingelheim International GmbH, priority 2023, published 2024).
